Test results reported in patent US11285158B2, “Uses of pyrimidopyrimidinones as SIK inhibitors” (The General Hospital Corporation, priority 2017, dated 2022).
“Also recorded” adds a separate entry of the source.

How the values were obtained:
[1] = system: normal human melanocytes, UACC62 melanoma cells, and UACC257 melanoma cells; assay: MITF and TRPM1 mRNA expression by qPCR; format: cell-based; conditions: for Mitf expression: UACC62 and UACC257 melanoma cells (FIG. 7); for TRPM1 mRNA levels (MITF gene target): delayed relative to MITF induction, 4 uM, over 24 hours; for MITF mRNA expression / Induction of the pigmentation pathway compared with HG 9-91-01: normal human melanocytes; for MITF mRNA expression: UACC62 and UACC257 cells, 3 hours of treatment, relative to RPL11; for Induction of the pigmentation pathway compared with HG 9-91-01: Mitf and TRPM1 mRNA (FIG. 4)
Description: Cell Culture. UACC257 and UACC62 cells were grown in RPM1+1% penicillin and streptomycin+5% fetal bovine serum. Normal human melanocytes were grown in TIVA, and starved 24 hours in HAM's F-12+1% penicillin and streptomycin before all molecular experiments.
(§1) qPCR. mRNA was extracted from cells using the RNeasy Mini Kit (Qiagen®). KAPA SYBR® FAST Universal One-Step qRT-PCR Kit (KAPA BIOSYSTEMS®) was used to prepare mRNA samples for qPCR and samples were analyzed using the 7500 Fast Real Time PCR System (Applied Biosystems®). The relative expression of each gene was calculated by 7500 Fast System Software program, which utilizes Ct normalized to mRNA levels of RPL11 to calculate relative expression. Results are reported relative to control cells.

UACC257 melanoma cells = assay: Cell pelleting experiment (gross pigmentation of cell pellets); format: cell-based, human; conditions: 4 uM, 3 days of treatment
Description: Cell pelleting experiments. 1×10^5 UACC257 cells were plated per well in a 6-well plate. […] After 3 days, cells were trypsinized with 0.25% trypsin, resuspended in RPMI media, and pelleted. Pellets were washed 1× with PBS and allowed to dry before imaging.

Mc1r^e/e;K14—Scf mice = assay: Mouse pigmentation experiment, redhair model; format: in vivo
Description: (§2) Mice. C57BL/6J Mc1r^e/e mice were crossed with K14—Scf transgenic mice. C57BL/6J Tyr^c2j/c2j were crossed with K14—Scf transgenic mice. (Kunisada et al. 1998; D'Orazio et al. 2006).
(§3) Mouse pigmentation experiments. Animals were treated with vehicle control or 37.5 mM HG 9-9-01 until uniform gross darkening was visible as stated in figure legends. Daily differences in darkening of the skin were measured by reflective colorimetry. Skin was harvested, fixed, and processed for paraffin embedding. Sections were cut from paraffin blocks, and sections were stained utilizing hematoxylin and eosin (morphology) and Fontana-Masson (melanin). Melanin dissolution was conducted utilizing NaOH lysis method (Wakamatsu and Ito 2002).
(§4) Colorimeter Measurements: Differences in darkening of the skin were measured by reflective colorimetry (CIE L* white-black color axis) utilizing a CR-400 Colorimeter (Minolta®) calibrated by a calibration plate (C: Y 93.1, x 0.3133, y 0.3194) before each set of measurements.
(§5) To test this, a previously described mouse “redhair” model was utilized which carries the inactivating Mc1r^e/e mutant allele and a transgene, K14—SCF, in which Stem Cell Factor expression is driven by the Keratin-14 promoter allowing for epidermal homing of melanocytes (Kunisada et al. 1998; D'Orazio et al. 2006). Albino mice harboring a mutation in the tyrosinase gene were combined with the K14—Scf transgene (tyr^c/c;K14—Scf mice) and served as controls to evaluate whether the pigmentation afforded by topical SIK inhibitor was dependent upon the canonical tyrosinase-melanin pathway. […] Skin pigmentation remained in its pretreatment state over the next 30 days (FIG. 3A; 3B). […] These findings combined with the small molecule and lipophilic nature of the SIK inhibitors led us to investigate the use of SIK inhibitors for topical eumelanization of human skin.

Tyr^c/c;K14—Scf mice = assay: Mouse pigmentation experiment, albino control mice; format: in vivo
Description: as §2, §3, §4, §5

B16 cells = assay: In vitro MITF induction in B16 cells; format: cell-based, mouse; conditions: Mus musculus, Table 5
Description: as §1
Tables 2 to 5 below show the effects of exemplary […] compounds on skin darkening, including an in vitro test of MITF induction following the same protocol as described above in paragraph 333, wherein exemplary SIK inhibitor compounds were tested for their in vitro induction of MITF.
(§6) Table 5 below additionally provides characteristics of exemplary SIK inhibitor compounds, MITF induction in B16 cells, EC50, log P, and experimental conditions for skin darkening experiments in mice and humans.

mouse skin = assay: Skin darkening experiments in mice (Table 5); format: in vivo; conditions: HG-9-91-01: 2 days, 25 mM, HG-11-136-01: 12 days, HG-11-143-01: 12 days, 25 mM (4 days) −130 mM (8 days)
Description: as §3, with “Animals were treated with vehicle control or 37.5 mM HG 9-9-01 until uniform gross darkening was visible as stated in figure legends.” left out
as §6

SIKs = assay: Kinase activity in vitro assay (biochemical IC50 against SIKs); parameters: species or system human; conditions: compared with HG 9-91-01 (FIG. 6)
Description: Kinase activity in vitro assay. The biochemical activities against SIK2 were measured by Caliper-based mobility shift assay (PerkinElmer®). […] Reactions were quenched by adding 20 mM EDTA (pH 8) after 1 hour, and percentage of substrate conversion was measured by LabChip EZ Reader II (PerkinElmer®). IC50's for SIK2 inhibition were calculated using SmartFit nonlinear regression in Genedata® Screener software suite (Genedata®).
(§7) All other in vitro kinase assay were conducted using the SelectScreen Kinase Profiling Service at Thermo Fisher Scientific® (Madison, Wis.). The protocols are available from Thermo Fisher Scientific® website.

[2] = system: human breast skin explants; assay: Human skin explants: darkening/pigmentation after topical SIK inhibitor; format: cell-based; conditions: for Results (skin darkening): Human Skin Explants; for Gross pigmentation of human skin explants / Melanin content, Fontana Masson staining: 37.5 mM; for Gross pigmentation of human skin explants: 8 days (1×/day); for Melanin content, Fontana Masson staining: 8 days, compared to control
Description: Image and Colorimeter analysis were conducted 24 hours after the last treatment.
Human pigmentation experiments. Full thickness human breast skin explants were cultured in petri dishes with a solid phase and liquid phase phenol red free DMEM medium with […], 5% fungizone (Gibco®), and 10% FBS. Passive application refers to simply applying the treatment to skin without further rubbing or manipulation. Mechanical application refers to application of agents to skin with further rubbing of treatment with 10 clockwise turns of a gloved cotton swab applicator. Skin was harvested, fixed, and processed for paraffin embedding. Sections were cut from paraffin blocks, and sections were stained utilizing hematoxylin and eosin (morphology) and Fontana-Masson (melanin).

FRK and SIKs = assay: Enzymatic assays of KinomeScan top hits (in-house or SelectScreen); format: biochemical, human
Description: as §7
(§8) Since there are limitations to topical delivery of drugs into human skin epidermis, novel SIK inhibitors designed to enhance epidermal permeation by reducing the size and increasing the lipophilicity (c Log P) to develop second generation SIK inhibitors YKL 06-061 and YKL 06-062 were derived (FIG. 6) (Bos and Meinardi 2000; Hadgraft and Pugh 1998). […] To assess the kinome selectivity information of new analogs, YKL-06-061 was screened across a panel of 468 human kinases at a concentration of […] using the KinomeScan methodology (DiscoverX). […] As the KinomeScan assays measure binding, enzymatic assays for these targets were also performed either in-house or using the SelectScreen Kinase Profiling Service at Thermo Fisher Scientific (Madison, Wis.).

[3] = system: panel of 468 human kinases; assay: KinomeScan kinome profiling; format: binding
Description: Kinome Profiling. Kinome profiling was performed using KinomeScan ScanMAX at compound concentration of 1 μM. Protocols are available from DiscoverX®.
as §8

[4] = Table 2, passive topical application

Structure (SMILES)	Mitf expression [1]	TRPM1 mRNA levels (MITF gene target) [1]	MITF mRNA expression [1]	Darkening (Mouse) (mouse skin)	IC50 values for inhibition of SIKs (SIKs)	Induction of the pigmentation pathway compared with HG 9-91-01 [1]	Results (skin darkening) [2, 4]	Results (skin darkening) ([2]; Table 4)	Gross pigmentation of human skin explants ([2]; passive topical application)	Melanin content, Fontana Masson staining ([2]; passive topical application)	further results
COc1ccc(N(C(=O)Nc2c(C)cccc2C)c2cc(Nc3ccc(N4CCN(C)CC4)cc3)ncn2)c(OC)c1 [HG 9-91-01]	induces Mitf expression	increased	Dose-dependent increases								Gross pigmentation of cell pellets (UACC257 melanoma cells): Gross pigmentation was observed; Fontana-Masson staining, difference between treatment groups (Mc1r^e/e;K14—Scf mice; 40 days after treatment, Mc1r^e/e;K14—Scf and Tyr^c/c;K14—Scf mice): no differences; Skin morphology, hematoxylin and eosin stain (Mc1r^e/e;K14—Scf mice; 40 days after treatment, all mice): normal morphology; Nuclear capping of melanosomes within epidermal keratinocytes (Mc1r^e/e;K14—Scf mice; Fontana-Masson stained skin sections): Nuclear capping of melanin-laden melanosomes was observed; Time to reversal of darkening after treatment was stopped (Mc1r^e/e;K14—Scf mice; after 6 days of topical treatment): ≤ 10 days; Skin morphology, hematoxylin and eosin staining (Mc1r^e/e;K14—Scf mice; after treatment): normal morphology; Extractable eumelanin, NaOH lysis of skin samples (Mc1r^e/e;K14—Scf mice; compared to all other treatment groups): visible increase in extractable eumelanin; Course of darkening (Mc1r^e/e;K14—Scf mice; topical application, 6 days of treatment): progressive and reversible; also recorded: progressive over 6 days of treatment; Reflective colorimetry (CIE L* white-black color axis) (Mc1r^e/e;K14—Scf mice; topical, daily, 37.5 mM): significant darkening; Gross skin darkening (Mc1r^e/e;K14—Scf mice; topical, daily, 37.5 mM, 30 uL, 6 days / 7 days (FIG. 2)): robust darkening; Melanin production, Fontana-Masson staining (Mc1r^e/e;K14—Scf mice; treated skin areas): strong induction of melanin production; Epidermis morphology, hematoxylin and eosin staining (Tyr^c/c;K14—Scf mice; after treatment): normal morphology; Pigment induction, Fontana-Masson staining (Tyr^c/c;K14—Scf mice; albino mice): no pigment induction; Visible change in skin pigmentation (Tyr^c/c;K14—Scf mice; albino mice, topical, daily, 37.5 mM): No visible change in skin pigmentation; Change of skin colour during and after treatment (Tyr^c/c;K14—Scf mice; during treatment or 14 days after treatment was stopped): No change
COc1ccc(N(C(=O)Nc2c(C)cccc2C)c2cc(Nc3ccc(N4CCN(C)CC4)cc3)ncn2)c(OC)c1 [HG-9-91-01]				Darkens							EC50 (B16 cells; readout not given, presumably mitf induction in B16 cells): 0.016 µM
COc1ccc(N2C(=O)N(c3c(C)cccc3C)Cc3cnc(Nc4ccc(N5CCN(C)CC5)cc4)nc32)c(OC)c1 [HG-11-136-01]				Darkens							maximal fold induction (B16 cells; B16 cells, read-out: Highest fold mitf induction in B16 cells): 6.1
COc1cc(N2CCN(C)CC2)ccc1Nc1ncc2c(n1)N(C1CCC1)C(=O)N(c1c(C)cccc1C)C2 [YKL-06-061, 1-cyclobutyl-3-(2,6-dimethylphenyl)-7-(2-methoxy-4-(4-methylpiperazin-1-yl)phenylamino)-3,4-dihydropyrimido[4,5-d]pyrimidin-2(1H)-one]	induces Mitf expression	increased	dose dependent increase		comparable	as efficacious in inducing the pigmentation pathway as HG 9-91-01	Darkens	Darkens	induced significant pigmentation	increased melanin content	Kinase selectivity in enzymatic assays (FRK and SIKs): only inhibited one kinase (FRK) stronger than SIKs; S(1) score ([3]; concentration of 1 pM): 0.02; Number of kinases displaying tight binding (Ambit scores of less than or equal to 1) ([3]; concentration of 1 µM): 16
Cc1cccc(C)c1N1Cc2cnc(Nc3ccc(N4CCN(C)CC4)cc3)nc2N(C2CCCCC2)C1=O [YKL-06-062, 1-cyclohexyl-3-(2,6-dimethylphenyl)-7-(4-(4-methylpiperazin-1-yl)phenylamino)-3,4-dihydropyrimido[4,5-d]pyrimidin-2(1H)-one]	induces Mitf expression	increased	dose dependent increase		comparable	as efficacious in inducing the pigmentation pathway as HG 9-91-01	Darkens	Darkens	induced significant pigmentation	increased melanin content	
